Data on nine molecules can be found in patent publication US9145351B2, “Azole derivatives, methods for producing the same, intermediate thereof, agro-horticultural agents” (KUREHA CORPORATION, priority 2009, dated 2015).

Where only a bound is given, the exact number is not on record here.

One assay deals with Puccinia recondita. The experiment in a line: Efficacy test against wheat brown rust, 100 mg/L and 10 mg/L (Experimental Example 2). It counts as in vivo. The conditions noted are these: nine to 14 days after inoculation; for efficacy compared with compound (1): 10 mg/L sprayed at 1,000 L/ha. The protocol:
Onto a wheat plant (variety: NORIN No. 61) grown to the two-leaf phase using a square plastic pot (6 cm×6 cm), a wettable formulation such as Formulation Example 1 which was diluted and suspended in water at a certain concentration (100 mg/L and 10 mg/L) was sprayed at a rate of 1,000 L/ha. The sprayed leaves were air-dried, and inoculated with spore suspension of Puccinia recondita (adjusted at 200 spores/vision, […] was added at 60 ppm) by spraying, and kept at 25 degrees C. and a high humidity for 48 hours. Thereafter, the plant was kept in a greenhouse. Nine to 14 days after inoculation, the wheat brown rust lesion degree was investigated, and the protective value was calculated by the following equation. Protective value (%)=(1-lesion degree in sprayed plot/lesion degree in unsprayed plot)×100

The test system of a further assay is Trichoderma sp. As to the kind of experiment: Plate medium assay, industrial material deteriorating microorganism, Trichoderma (Experimental Example 5). It counts as cell-based. The note with it: treatment at 50 mg/l, PDA plate medium, read-out: growth inhibition grade. The protocol: (§1) In this Experimental Example, the fungicidal effects of the inventive compounds on various phytopathogenic fungi for plants and hazardous microorganism for industrial materials were examined by the methods described below. Each inventive compound was dissolved in 2 ml of dimethyl sulfoxide. 0.6 ml of this solution was added to 60 nil of a PDA medium (potato dextrose agar medium) at about 60 degrees C., which was mixed thoroughly in a 100-ml conical flask, and poured into a dish, where it was solidified, thereby obtaining a plate medium containing the inventive compound at 50 mg/L and 5 mg/L. On the other hand, a subject microorganism previously cultured on a plate medium was cut out using a cork borer whose diameter was 4 mm, and inoculated to the test compound-containing plate medium described above. […] The growth degree of the microorganism on the test compound-containing plate medium thus observed was compared with the growth degree of the microorganism in the untreated group, and % mycelial growth inhibition was calculated by the following equation. R=100(dc-dt)/dc wherein R=% mycelial extension inhibition, dc=flora diameter in untreated plate, dt=flora diameter in treated plate. The results obtained as described above were evaluated as one of the 5 grades according to the following criteria.

In another assay the test system is Aureobasidium sp. The experiment in a line: Plate medium assay, industrial material deteriorating microorganism, Aureobasidium (Experimental Example 5). The note with it: treatment at 50 mg/l, PDA plate medium, read-out: growth inhibition grade. It counts as cell-based. The procedure: as §1
A further assay has as its system Tyromyces palustris. The experiment in a line: Plate medium assay, wood denaturing microorganism Oouzuratake (Experimental Example 5). It counts as cell-based. The note with it: treatment at 50 mg/l, PDA plate medium; read-out: growth inhibition grade. The protocol: as §1
Another assay relates to Aspergillus sp. The experiment in a line: Plate medium assay, industrial material deteriorating microorganism, Aspergillus (Experimental Example 5). It counts as cell-based. The conditions noted are these: treatment at 50 mg/l, PDA plate medium, read-out: growth inhibition grade. The procedure: as §1
The subject of the next assay is Curvularia sp. The experiment in a line: Plate medium assay, industrial material deteriorating microorganism, Curvularia (Experimental Example 5). The conditions noted are these: treatment at 50 mg/l, PDA plate medium, read-out: growth inhibition grade. It counts as cell-based. The procedure:
as §1

A further assay relates to Fusarium graminearum. As to the kind of experiment: whole plant or invertebrate. The conditions noted are these: in Triticum aestivum, 168 h, read-out: Protective value. It counts as in vivo.
For another assay, the system named is Cladosporium sp. As to the kind of experiment: Plate medium assay, industrial material deteriorating microorganism, Cladosporium (Experimental Example 5). It counts as cell-based. The note with it: treatment at 50 mg/l, PDA plate medium, read-out: growth inhibition grade. The procedure: as §1
Another assay relates to Coriolus versicolor. The experiment in a line: Plate medium assay, wood denaturing microorganism Kawaratake (Experimental Example 5). The note with it: Trametes versicolor; treatment at 50 mg/l, PDA plate medium; read-out: growth inhibition grade. It counts as cell-based. The protocol:
as §1

For `C[C@]1(CCl)CC[C@@H](Cc2ccc(OC(F)(F)F)cc2)[C@]1(O)Cn1cncn1` (relative stereo) [Compound I-79], the “efficacy compared with compound (1)” value in the assay with Puccinia recondita is on record as “higher efficacy than that of compound (1)”.
Take `O[C@]1(Cn2cncn2)[C@@H](Cc2ccc(Cl)cc2)CC[C@@H]1C(F)(F)F` (racemic) [Compound I-365, (1RS,2SR,5RS)-5-(4-chlorobenzyl)-2-trifluoromethyl-1-(1H-1,2,4-triazol-1-ylmethyl)cyclopentanol]: the inhibition at 50 µg/mL with Trichoderma sp., with Aureobasidium sp., with Tyromyces palustris, in the assay with Aspergillus sp., in the assay with Curvularia sp. and in the assay with Cladosporium sp. was 60 to 80% each time. The inhibition at 50 µg/mL with Coriolus versicolor lay within 60 to 80%. Besides, the pest or weed control at 500 µg/mL in the assay with Fusarium graminearum was no less than 90%.
As to `C[C@@]1(CCl)CC[C@@H](Cc2ccc(Cl)cc2)[C@]1(O)Cn1cncn1` (racemic) [Compound I-101], the “efficacy compared with compound (1)” value in the assay with Puccinia recondita is “higher efficacy than that of compound (1)”.
In the case of `O[C@]1(Cn2cncn2)[C@H](Cc2ccc(Cl)cc2)CCC1(CCl)CCl` (relative stereo) [Compound I-203, cis-5-(4-chlorobenzyl)-2,2-bis(chloromethyl)-1-(1H-1,2,4-triazol-1-yl)methylcyclopentanol], the “efficacy compared with compound (1)” value with Puccinia recondita is “higher efficacy than that of compound (1)”.
Same read-out and setting: under `C[C@]1(CCl)CC[C@@H](Cc2ccccc2F)[C@]1(O)Cn1cncn1` (relative stereo) [Compound I-86] stands “higher efficacy than that of compound (1)”; under `Cc1ccc(C[C@@H]2CC[C@](C)(CCl)[C@@]2(O)Cn2cncn2)cc1` (relative stereo) [Compound I-80], “higher efficacy than that of compound (1)”.
On to `C[C@@]1(CCl)CC[C@H](Cc2ccc(Cl)cc2)[C@]1(O)Cn1cncn1` (racemic) [Compound I-401, (1RS,2RS,5RS)-5-(4-chlorobenzyl)-2-chloromethyl-2-methyl-1-[1,2,4]triazol-1-ylmethylcyclopentanol], for which the inhibition at 50 µg/mL in the assay on Trichoderma sp., in the assay with Aureobasidium sp., in the assay with Tyromyces palustris, in the assay on Aspergillus sp., in the assay on Curvularia sp. and in the assay with Cladosporium sp. was 60 to 80% throughout. Also, the inhibition at 50 µg/mL in the assay with Coriolus versicolor fell in the range of 60 to 80%. Also, the pest or weed control at 500 µg/mL in the assay on Fusarium graminearum is no less than 90%.
Turning to `CC[C@]1(CCl)CC[C@@H](Cc2ccccc2)[C@]1(O)Cn1cncn1` (relative stereo) [Compound I-97], the “efficacy compared with compound (1)” value in the assay with Puccinia recondita was “higher efficacy than that of compound (1)”.
Take `CC(Cl)=C[C@]1(C)CC[C@@H](Cc2ccc(Cl)cc2)[C@]1(O)Cn1cncn1` (racemic) [Compound I-115, (1RS,2SR,5SR)-5-(4-chlorobenzyl)-2-(2-chloropropenyl)-2-methyl-1-(1H-1,2,4-triazol-1-ylmethyl)cyclopentanol]: the inhibition at 50 µg/mL with Trichoderma sp., with Aureobasidium sp., in the assay with Tyromyces palustris, in the assay with Aspergillus sp., in the assay on Curvularia sp. and in the assay with Cladosporium sp. was 60 to 80% each time. Also, the inhibition at 50 µg/mL in the assay with Coriolus versicolor was 60 to 80%. Further, the pest or weed control at 100 µg/mL is no less than 90% with Puccinia recondita (Puccinia recondita, 336 h, 100 mg/L sprayed at 1,000 L/ha, read-out: Protective value) and no less than 80% in the assay with Fusarium graminearum. Also, in the assay with Fusarium graminearum, the pest or weed control at 500 µg/mL was no less than 90%.
